Consider 1 compound from article PMC3731256, “Optimization of Substituted 6-Salicyl-4-Anilinoquinazoline Derivatives as Dual EGFR/HER2 Tyrosine Kinase Inhibitors” (PLoS ONE, 2013).

One assay deals with T1, p38α (Homo sapiens, UniProt Q16539).
T1 construct: FLAG (N); made in house; host or cells: baculovirus expression system
Nature of the assay: Serine/threonine kinase profiling ([γ-32P] ATP), p38α. The format is biochemical. Here is the method: Assays for 4 serine/threonine kinases using radio labeled [γ-^32P] ATP (GE Healthcare, Piscataway, NJ) were performed in 96 well plates. Mitogen-activated protein kinase p38α (p38α), was expressed as N-terminal FLAG-tagged protein using a baculovirus expression system. Aurora-A and -B were expressed as N-terminal 6xHis tagged protein using a baculovirus expression system. CDK2/CycA was expressed as C-terminal 6His-tagged CDK2, and N-terminal GST-tagged Cyclin A protein using a baculovirus expression system.
The reaction conditions were optimized for each kinase: p38α (100 ng/well of enzyme, 1 μg/well of MBP (Wako Pure Chemical Ind., Osaka, Japan), 0.1 μCi/well of [γ-^32P] ATP, 60 min reaction at 30 ℃); Aurora-A and -B (50 ng/well of enzyme, 30 μM of Aurora substrate peptide, 0.2 μCi/well of [γ-^32P] ATP, 60 min reaction at room temperature); CDK2/CycA (1.8 mUnits/well of enzyme, 1 μg/well of Histone H1 (Calbiochem), 0.2 μCi/well of [γ-^32P] ATP, 20 min reaction at room temperature).
All the four enzyme reactions were performed in 25 mM HEPES, pH 7.5, 10 mM magnesium acetate, 1 mM dithiothreitol and 0.5 μM ATP containing optimized concentration of enzyme, substrate and radiolabeled ATP as described above in a total volume of 50 μl. […] The radioactivity was counted by a TopCount scintillation counter (PerkinElmer).

A further assay has as its target T2, human EGFR (Homo sapiens, UniProt P00533).
T2 construct: the cytoplasmic domain (amino acids 669-1210) of human EGFR; FLAG (DYKDDDD) (N); made in house
Briefly: EGFR kinase assay ([γ-32P] ATP, poly-Glu-Tyr). It counts as biochemical. As for the experimental part: The expressed HER2 kinase and EGFR kinase were purified by anti-FLAG M2 affinity gel (Sigma-Aldrich, USA). The HER2 and EGFR kinase assays were performed using radiolabeled [γ-^32P] ATP (GEHealthcare, USA) in 96-well plates. The kinase reactions were performed in 50 mmol/L Tris-HCl, pH7.5, 5 mmol/L MnCl2, 0.01% Tween-20 and 2 mmol/L DTT containing 0.9 μCi of [γ-^32P] ATP per reaction, 50 μmol/L ATP, 5 μg/mL poly-Glu-Tyr (4:1) and 0.25 μg/mL of purified Her2 or EGFR cytoplasmic domain in a total volume of 50 μL. […] Kinase reactions were initiated by adding ATP. After the kinase reaction incubated for 10 minutes at room temperature, reactions were terminated by the addition of 10% (final concentration) trichloroacetic acid. The [γ-^32P]-phosphorylated proteins were filtered in a harvest plate (Millipore, USA) with a cell harvester (PerkinElmer, USA) and washed free of [γ-^32P] ATP with 3% phosphoric acid. The plates were dried, followed by the addition of 25 μL of MicroScintO (PerkinElmer, USA). Radioactivity was counted by a Topcount scintillation counter (PerkinElmer, USA).

A further assay relates to MCF-7 cells. Nature of the assay: Antiproliferation WST-1 assay, MCF-7. It counts as cell-based, human. The note with it: Homo sapiens, MCF7, WST-1 assay; MCF-7 breast cancer, Her2/neu overexpression; read-out: Cellular IC50, MCF-7. As for the experimental part:
(§1) WST-1 is better than MTT for analyzing cell proliferation, because it can be reduced to soluble formazan by dehydrogenase in mitochondria and has little toxicity to cells. Cell proliferation was determined using WST-1 dye (Beyotime Inst Biotech, China) according to manufacture’s instructions. Brieﬂy, 5 × 10^3 cells per well were seeded in a 96-well plate, grown at 37 ℃ for 24 h, and then placed in serum-starved conditions for a further 6 h. Subsequently, cells were treated with compounds (Table 1) at increasing concentrations in the presence of 10% FBS for 24 or 48h. After 10 µL WST-1 dye was added to each well, cells were incubated at 37 ℃ for 2 h and the absorbance was ﬁnally determined at 450 nm using a microplate reader.
On the technique in general: Tetrazolium dyes change colour on reduction, which living cells bring about.

The next assay concerns H1975 cells. Nature of the assay: Antiproliferation WST-1 assay, H1975. The format is cell-based. To be noted: Homo sapiens, NCI-H1975, NSCLC, EGFR L858R/T790M. As for the experimental part:
as §1

Setting [1] is: converted from IC50 by online calculator.

T2 sequence (P00533 669-1210): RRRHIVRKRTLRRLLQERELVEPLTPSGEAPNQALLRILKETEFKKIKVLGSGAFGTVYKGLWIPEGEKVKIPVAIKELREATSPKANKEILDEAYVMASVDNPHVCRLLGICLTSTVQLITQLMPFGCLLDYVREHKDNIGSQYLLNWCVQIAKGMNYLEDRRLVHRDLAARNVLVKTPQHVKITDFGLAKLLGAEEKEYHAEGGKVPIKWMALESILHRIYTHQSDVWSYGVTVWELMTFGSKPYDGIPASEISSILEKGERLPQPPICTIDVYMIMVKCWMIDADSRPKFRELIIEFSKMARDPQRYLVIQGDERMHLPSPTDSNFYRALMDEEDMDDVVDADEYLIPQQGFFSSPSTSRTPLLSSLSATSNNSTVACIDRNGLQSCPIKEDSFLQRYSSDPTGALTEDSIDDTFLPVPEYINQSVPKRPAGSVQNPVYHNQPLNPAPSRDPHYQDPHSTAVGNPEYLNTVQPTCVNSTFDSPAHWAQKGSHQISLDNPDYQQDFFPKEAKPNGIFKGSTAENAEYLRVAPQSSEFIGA
T1 sequence (Q16539 whole entry): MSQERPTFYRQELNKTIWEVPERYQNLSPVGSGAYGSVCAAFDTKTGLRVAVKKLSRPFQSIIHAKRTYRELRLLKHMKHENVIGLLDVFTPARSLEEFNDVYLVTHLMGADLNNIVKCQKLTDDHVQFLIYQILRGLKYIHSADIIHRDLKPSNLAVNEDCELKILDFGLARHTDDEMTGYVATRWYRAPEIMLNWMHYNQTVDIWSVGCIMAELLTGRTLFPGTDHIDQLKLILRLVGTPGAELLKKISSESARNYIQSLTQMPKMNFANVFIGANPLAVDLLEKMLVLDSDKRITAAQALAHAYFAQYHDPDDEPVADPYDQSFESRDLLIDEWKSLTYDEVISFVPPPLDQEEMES

As usually defined, the IC50 is the concentration needed to halve the response being measured. As to `O=C(Nc1ccc2ncnc(Nc3cccc(Br)c3)c2c1)c1ccc(C(F)(F)F)cc1O` [Compound 21, N-(4-(3-bromophenylamino)quinazolin-6-yl)-2-hydroxy-4-(trifluoromethyl)benzamide], the IC50 was 16.1 ± 0.37 µM on p38α (ATP concentration = Km); 120 ± 12 nM on human EGFR (phosphorylation of poly-Glu-Tyr copolymer, mean, >1 determination, read-out: Enzyme activity IC50 against EGFR kinase); 490 ± 18 nM in the assay with MCF-7 cells; 3.3 ± 0.233 µM with H1975 cells. On p38α (setting [1]), the “pIC50 p38α” value is recorded as 4.79. The “pIC50 EGFR” value at human EGFR (setting [1]) is given as 6.92.
